# Experiments:
# Zika virus = test: Antiviral activity against ZIKV at 1 uM relative to control; type: functional
# in vitro [1] = conditions: human, sertoli cell
# Cytomegalovirus = test: Antiviral activity against CMV; type: functional, organism-based; conditions: Human betaherpesvirus 5
# [2] = Cytotoxicity against HSG cells; type: toxicity, cell-based; conditions: human
# [3] = Cytotoxicity against human LN-18 cells; type: toxicity, cell-based
# [4] = Cytotoxicity against human MCL cells; type: toxicity, cell-based
# Human alphaherpesvirus 1 [5] = test: Antiviral activity against HSV-1 KOS strain infected in 1 hr pretreated mouse L929 cells assessed as cell viability by cell titre-glo luminescent kit method; type: functional, organism-based; conditions: Human alphaherpesvirus 1, KOS
# Human alphaherpesvirus 1 [6] = test: Antiviral activity against HSV-1-induced necrosis; type: functional, organism-based
# [7] = Cytotoxicity against 24ST1NLESG cells (unknown origin); type: toxicity, cell-based
# Influenza A virus [8] = test: Antiviral activity against influenza pH1N1 virus; type: functional, organism-based
# Influenza A virus [9] = test: microbe, parasite or virus in culture; type: functional, organism-based; conditions: H1N1
# [10] = Cytotoxicity against human NCI-H1666 cells; type: toxicity, cell-based
# [11] = test system: Human immunodeficiency virus; test: Antiviral activity against HIV p24 assessed as extracellular antigen accumulation in primary macrophage at 25 uM; type: functional
# [12] = test system: Mammarenavirus choriomeningitidis; type: functional; conditions: dose 0.5-5 µM
# in vitro [13] = conditions: human, hek-293t
# [14] = target: Cyclin-dependent kinase 4 (Homo sapiens, UniProt P11802)
# Cyclin-dependent kinase 4, sequence (P11802 whole entry): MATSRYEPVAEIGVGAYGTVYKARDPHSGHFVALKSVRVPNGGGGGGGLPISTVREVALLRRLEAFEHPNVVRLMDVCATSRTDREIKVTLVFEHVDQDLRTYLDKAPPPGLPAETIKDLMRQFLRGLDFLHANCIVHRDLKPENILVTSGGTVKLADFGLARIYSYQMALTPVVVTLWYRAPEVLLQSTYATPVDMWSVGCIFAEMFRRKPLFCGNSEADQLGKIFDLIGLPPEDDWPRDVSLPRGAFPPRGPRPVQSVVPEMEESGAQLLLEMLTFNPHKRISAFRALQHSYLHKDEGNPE
# [15] = test system: Human immunodeficiency virus 1; test: microbe, parasite or virus in culture; type: functional, organism-based
# Human alphaherpesvirus 3 = test: microbe, parasite or virus in culture; type: functional, organism-based
# in vitro [16] = conditions: human, MDM cells
# [17] = Cytotoxicity against human PC-3 cells; type: toxicity, cell-based
# Zaire ebolavirus = test: microbe, parasite or virus in culture; type: functional, organism-based; conditions: dose 5 µM
# [18] = Cytotoxicity against human MCF7 cells; type: toxicity, cell-based
# Influenza A virus [19] = test: Antiviral activity against influenza A RB1/H1N1pdm09 virus; type: functional, organism-based
# [20] = Cytotoxicity against human A549 cells; type: toxicity, cell-based
# [21] = Cytotoxicity against MDCK-II cells; type: toxicity, cell-based, Canis lupus familiaris; conditions: dog
# SARS-CoV-2 [22] = test: microbe, parasite or virus in culture; type: functional, organism-based; conditions: Severe acute respiratory syndrome coronavirus 2
# SARS-CoV-2 [23] = test: Antiviral activity against SARS-Cov-2 infected in 1 hr pretreated African green monkey Vero E6 cells assessed as inhibition of viral replication; type: functional, organism-based; conditions: Severe acute respiratory syndrome coronavirus 2, Vero C1008
# SARS-CoV-2 [24] = test: Antiviral activity against SARS-CoV-2 assessed as inhibition of viral replication; type: functional, organism-based; conditions: Severe acute respiratory syndrome coronavirus 2
# Ebolavirus [25] = test: microbe, parasite or virus in culture; type: functional, organism-based; conditions: Orthoebolavirus, MDM
# Marburgvirus [26] = test: microbe, parasite or virus in culture; type: functional, organism-based; conditions: Orthomarburgvirus, MDM
# Ebolavirus [27] = test: microbe, parasite or virus in culture; type: functional, organism-based; conditions: Orthoebolavirus
# Marburgvirus [28] = test: microbe, parasite or virus in culture; type: functional, organism-based; conditions: Orthomarburgvirus
# in vitro [29] = conditions: chlorocebus sabaeus, Vero E6 cells
structure (smiles),measurement,setting,value
Nc1nc(Nc2ccc3c(c2)CC[C@@H](N2CCCC2)CC3)nn1-c1cc2c(nn1)-c1ccccc1CCC2 [BEMCENTINIB],Activity,Zika virus,75%
same,CC50,in vitro [1],> 10 µM
Cc1oncc1C(=O)Nc1ccc(C(F)(F)F)cc1 [LEFLUNOMIDE],EC50,Cytomegalovirus,40 µM
same,CC50,[2],20.8 µM
C1=C/COCc2cc(ccc2OCCN2CCCC2)Nc2nccc(n2)-c2cccc(c2)COC/1 [PACRITINIB],CC50,[3],> 1 µM
C=CC(=O)N1CCC([C@@H]2CCNc3c(C(N)=O)c(-c4ccc(Oc5ccccc5)cc4)nn32)CC1 [ZANUBRUTINIB],CC50,[4],> 1.4 µM
O=C1NCCc2[nH]c(-c3ccncc3)cc21,IC50,Human alphaherpesvirus 1 [5],1.86 µM
same,IC50,Human alphaherpesvirus 1 [6],1.86 µM
same,CC50,[7],1 µM
NC1(c2ccc(-c3nc4ccn5c(=O)[nH]nc5c4cc3-c3ccccc3)cc2)CCC1 [MK-2206],EC50,Influenza A virus [8],0.79 µM
same,IC50,Influenza A virus [9],0.79 µM
same,CC50,[10],58.5 µM
Cn1c(=O)n(-c2ccc(C(C)(C)C#N)cc2)c2c3cc(-c4cnc5ccccc5c4)ccc3ncc21 [DACTOLISIB],Activity,[11],83%
same,log(activity),[12],2
same,CC50,in vitro [13],> 5 µM
CC(C)[C@H](CO)Nc1nc(Nc2cccc(Cl)c2)c2ncn(C(C)C)c2n1 [PURVALANOLA],IC50,[14],0.004 µM
same,EC50,[15],2.21 µM
same,EC50,Human alphaherpesvirus 3,1 µM
same,CC50,in vitro [16],18.7 µM
Ic1cccc(/C=N/Nc2nc(N3CCOCC3)nc(N(c3ccccc3)c3ccccc3)n2)c1,CC50,[17],> 10 µM
same,inhibition at 5 µM,Zaire ebolavirus,100%
same,CC50,[18],> 10 µM
CC(=O)Nc1cccc(-n2c(=O)n(C3CC3)c(=O)c3c(Nc4ccc(I)cc4F)n(C)c(=O)c(C)c32)c1 [TRAMETINIB],EC50,Influenza A virus [19],0.016 µM
same,CC50,[20],> 20 µM
same,CC50,[21],> 20 µM
Cc1cccc(/C=N/Nc2cc(N3CCOCC3)nc(OCCc3ccccn3)n2)c1 [APILIMOD],EC50,SARS-CoV-2 [22],0.023 µM
same,EC50,SARS-CoV-2 [23],0.023 µM
same,EC50,SARS-CoV-2 [24],0.023 µM
same,IC50,Ebolavirus [25],0.01 µM
same,IC50,Marburgvirus [26],0.01 µM
same,EC50,Ebolavirus [27],0.01 µM
same,EC50,Marburgvirus [28],0.01 µM
same,CC50,in vitro [29],> 1 µM

# — ChEMBL document CHEMBL5131375, “Recent Developments in the Use of Kinase Inhibitors for Management of Viral Infections” (J Med Chem, 2022)
